What is called half-life is how long it takes for the measured level to halve. Low readings indicate rapid decline, high ones slow decline.

This is an account of results in patent US6743917B2, “Camptothecin analogs and methods of preparation thereof” (University of Pittsburgh, priority 1993, dated 2004).

Read-outs that look alike come from different tables or passages of the source.

For data set [1] the following is noted: earlier studies; cited from earlier work.
The conditions of data set [2]: cited from earlier work.
Data set [3] in a line: Kinetics of lactone ring opening in whole human blood (HPLC).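 On all read-outs here: hydrolytic opening of the camptothecin lactone ring followed over time by quantitative C18 reversed-phase HPLC in human whole blood at physiological temperature.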 The conditions noted are these: for % Lactone at Equilibrium: Whole Blood, physiological temperature.
Data set [4] concerns HL-60 (human promyelocytic leukemic) cells. Nature of the data set: Cytotoxicity assay, HL-60 cells (XTT-microculture tetrazolium assay). It counts as cell-based. Conditions: Homo sapiens; HL-60 cells, 72 hr incubation, XTT; read-out: Inhibition of cancer cell growth IC50, HL-60. As for the experimental part: The camptothecin derivatives were evaluated for their cytotoxic effects on the growth of HL-60 (human promyelocytic leukemic), 833K (human teratocarcinoma) and DC-3F (hamster lung) cells in vitro. The cells were cultured in an initial density of […]. They were maintained in a 5% CO2 humidified atmosphere at 37° C. in RPMI-1640 media (GIBCO-BRL Grand Island, N.Y.) containing penicillin 100 μ/ml)/streptomycin (100 ^μg/ml) (GIBCO-BRL) and 10% heat inactivated fetal bovine serum. The assay was performed in duplicate in 96-well microplates. The cytotoxicity of the compounds toward HL-60 cells following 72 hr incubation was determined by XTT-microculture tetrazolium assay. Scudiero, D. A., et al., Cancer Res., 48, 4827 (1988), the disclosure of which is incorporated herein by reference. 2′, 3′-bis(-methoxy-4-nitro-5-sulfheny)-5-[(phenylamino)carbonyl]-2H-tetrazolium hydroxide (XTT) was prepared at 1 mg/ml in prewarmed (37° C.) medium without serum. Phenazine methosulfate (PMS) and fresh XTT were mixed together to obtain 0.075 mM PMS-XTT solution (25 ^μl of the stock 5 mM PMS was added per 5 ml of 1 mg/ml XTT). Fifty ^μl of this mixture was added to each well of the cell culture at the end of 72 hr incubation. After incubation at 37° C. for 4 hr., absorbance at 450 nm and 630 nm was measured with a microplate reader (EL340, Bio-Tek Instruments, Inc., Winooski, Vt.).

Data set [5] has as its system 833K (human teratocarcinoma) cells. Kind of data set: Cytotoxicity assay, 833K cells (sulforhodamine B protein content). It counts as cell-based. Conditions: Homo sapiens; 833K cells, sulforhodamine B; read-out: Inhibition of cancer cell growth IC50, 833K. How it is done: (§1) Cultures were fixed with trichloroacetic acid and then stained for 30 minutes with 0.4% sulforhodamine B dissolved in 1% acetic acid. Unbound dye was removed by acetic acid washes, and the protein-bound dye was extracted with an unbuffered Tris base [tris(hydroxy-methyl)aminomethan] for determination of absorbance at 570 nm in a 96-well microplate reader. The experiments were carried out in duplicate using five to six concentrations of the drugs tested. Data were analyzed via computer software.

The subject of data set [6] is DC-3F (hamster lung) cells. Kind of data set: Cytotoxicity assay, DC-3F cells (sulforhodamine B protein content). It counts as cell-based. Conditions: Mesocricetus auratus, DC3F; DC-3F cells, sulforhodamine B; read-out: Inhibition of cancer cell growth IC50, DC-3F. As for the experimental part: as §1
Data set [7] has as its system sarcoma-180. Nature of the data set: Antitumor activity in vivo, sarcoma-180. The conditions noted are these: B6D2F1 mice, intraperitoneously twice daily for five days, several equivalent doses. How it is done: (§2) Antitumor activities of camptothecin derivatives were tested in B6D2F1 mice bearing sarcoma-180 or Lewis lung murine solid tumor. For S-180, 3×10^6 cells were innoculated subcutaneously on […]. Antitumor treatment started on day 1 intraperitoneously twice daily for five days. Tumor volumes on day 7 and day 14 were measured. Average tumor volumes were described as the ratio of treated versus untreated control (T/C). The control (treated with DMSO vehicle only) tumor volumes for day 7 and day 14 were 0.11 cm^3 and 0.61 cm^3, respectively. The T/C camptothecin is designated with “+++.” An increment or decrement of 10% as compared to the camptothecin T/C on day 14 at 2 mg/kg dosage is designated with increase or decrease of one “+” unit, respectively.

The nature of data set [8]: Kinetics of lactone ring opening in PBS buffer (HPLC). It counts as physicochemical. Conditions: for % Lactone at Equilibrium: PBS; for half-life: buffer, pH 7.4. As for the experimental part: Kinetics of Lactone Ring Opening. […] Mi and Burke (1994), supra.
FIG. 21 summarizes the stability of DB172 in phosphate buffered saline (PBS) buffer, pH 7.4, at physiological temperature. Shown in the figure are plots of lactone fraction as a function of time for DB172 at different concentrations. Drug was added to solution from a concentrated DMSO stock solution such that the volumes of DMSO were very small (less than 0.5%) relative to the volume of water. […] At the more dilute drug concentrations the drug hydrolyzes as previously observed for other camptothecins containing the ^α-hydroxy-^δ-lactone moiety.

The conditions of data set [9]: human.
Data set [10] in a line: in vitro. The conditions noted are these: human.
Data set [11] concerns Lewis lung carcinoma. Nature of the data set: Antitumor activity in vivo, Lewis lung carcinoma. Conditions: B6D2F1 mice, intraperitoneously twice daily for five days. As for the experimental part:
as §2
For Lewis lung carcinoma, tumor cells (1×10^6) were inoculated subcutaneously on day 0 and treatment started on day 1, intraperitoneously twice daily for five days. The grading of effects was as described above.

Data set [12] deals with MDA-MB-435 tumorigenic metastatic human breast cancer cells. Kind of data set: cells. Conditions: for IC50: Homo sapiens, MDA-MB-435, 72 h, read-out: IC50 (w/o HSA). It counts as cell-based. As for the experimental part: Cells. […] The cells were exposed to a range of drug concentrations for 72 hr exposure periods and then viability was assessed using a sulphorrhodamine B (SRB) assay. SRB assays were performed using a standard assay.
Sulphorhodamine B (SRB) assay was used. This assay measures the total protein levels in the living cells. Proteins from dead cells are lysed and removed in the washing step before TCA fixation. However, it is possible that cells in the early stage of death still have their membrane integrity and therefore retain the protein contents inside. As a result, the optical density at 490 nm can sometimes be overestimated and the cytotoxicity underestimated. […] The SRB assay is now a well regarded assay and was recently approved by NCI as a standard assay for anticancer drug screening.

Data set [13] concerns the target human serum albumin (HSA) (Homo sapiens, UniProt P02768). Conditions: PBS at pH 7.4; cited from earlier work.
The conditions of data set [14]: whole human blood, earlier studies; cited from earlier work.
Data set [15] is described as follows: Kinetics of lactone ring opening in PBS containing HSA (HPLC).
Data set [16] can be described thus: Equilibrium binding to DMPC small unilamellar vesicles (fluorescence anisotropy titration). Conditions: for KDMPC overall association constant: PBS buffer at PH 7.4 and 37° C. (In general: In fluorescence polarisation assays a small probe gives low polarisation when free and higher when bound to something large.)
A short description of data set [17]: Equilibrium binding to DMPG small unilamellar vesicles (fluorescence anisotropy titration). The conditions noted are these: PBS buffer at PH 7.4 and 37° C.
Data set [18] is described as follows: Self-association in aqueous solution (fluorescence intensity with time). It counts as physicochemical. Conditions: lactone drug forms added to solution, time=0. How it is done:
FIG. 22 summarizes the dependence of the fluorescence intensity of DB172 as a function of time and pH. In these experiments DB172 is added to solution as the lactone form. At low pH where the drug remains in the lactone form, the change in intensity with time is the lowest. At pH 10, where the conditions are such that the lactone more readily hydrolyzes and forms carboxylate, a significant change in fluorescence intensity is observed. It appears that a pH 10 nonfluorescent micellular aggregates composed of lactone disassemble and form open-ring carboxylate forms that tend to exist in solution as monomeric fluorescent species.
FIG. 23 explores the fluorescence intensity of DB172 as a function of concentration. Following the addition of low concentration of lactone drug to solution, the change in fluorescence signal is the greatest whereas at high drug concentration (10 ^μM) the fluorescence intensity changes are minimal. It is believed that a low concentration the micellular aggregates of DB172 displaying reduced fluorescence can disassemble and form fluorescent carboxylate species, but at higher drug concentration the equilibrium favors that the agent remains in the aggregated or reduced fluorescence state. […] Once again this decrease in fluorescence that occurs at reduced pH appear to be due to the formation of lactone aggregates of reduced fluorescence quantum yield.
FIGS. 21 through 24 are consistent with the unusual ability of DB172 lactone to self-associate and form micelles at micromolar drug concentrations. The micellular DB172 aggregates display a reduced fluorescence. If conditions allow for hydrolysis to occur such that carboxylate forms, there is an increase in the fluorescence intensity of the sample. FIG. 25 compares the relative change in the fluorescence emission of a sample following addition of lactone drug forms to solution. In these experiments the values for each drug are normalized to a value of 1 at time equals to zero, and the ability of the various analogs to disassociate in the event the drugs are aggregated at time=0 is monitored with time. […]

Where [19] appears, read: human plasma, pH 7.4 and 37° C.
Setting [20] is: HSA (PBS containing 30 mg/ml HSA).

Chain of human serum albumin (HSA) (P02768 25-609): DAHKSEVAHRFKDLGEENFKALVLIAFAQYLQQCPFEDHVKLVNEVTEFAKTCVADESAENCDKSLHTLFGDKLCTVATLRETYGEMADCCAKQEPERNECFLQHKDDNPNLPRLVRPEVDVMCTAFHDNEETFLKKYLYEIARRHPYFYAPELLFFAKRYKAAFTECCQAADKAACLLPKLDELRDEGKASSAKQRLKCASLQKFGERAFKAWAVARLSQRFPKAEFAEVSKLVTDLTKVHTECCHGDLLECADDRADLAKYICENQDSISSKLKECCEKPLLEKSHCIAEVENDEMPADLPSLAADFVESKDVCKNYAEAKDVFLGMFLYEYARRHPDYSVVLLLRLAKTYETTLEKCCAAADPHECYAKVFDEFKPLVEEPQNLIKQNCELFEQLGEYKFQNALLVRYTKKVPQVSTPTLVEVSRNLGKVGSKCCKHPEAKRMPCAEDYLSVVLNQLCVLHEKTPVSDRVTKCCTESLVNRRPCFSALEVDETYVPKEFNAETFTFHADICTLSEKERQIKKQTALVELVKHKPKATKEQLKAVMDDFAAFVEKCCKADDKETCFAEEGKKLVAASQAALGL

Regarding `CC[C@@]1(O)C(=O)OCc2c1cc1n(c2=O)Cc2cc3c(N)cccc3nc2-1` [9-aminocamptothecin], the “fraction hydrolyzed in PBS solution containing HSA” value in [1] was greater than 97%. Also, the “fraction converted to carboxylate in plasma” value in data set [2] (plasma) is given as greater than 99.5%. Besides, in [3], the “% Lactone at Equilibrium” value is less than 0.3%.

Take `CC[C@@]1(O)C(=O)OCc2c1cc1n(c2=O)Cc2c-1nc1ccccc1c2[Si](C)(C)C` [Example 1, (20S)-7-trimethylsilylcamptothecin]: the IC50 in data set [4] was determined as 3.8 nM; in data set [5], 5.6 nM; in data set [6], 4.2 nM. Further, the “activity against sarcoma 180 compared with camptothecin (tumor volume reduction)” value in data set [7] is given as “better activity than camptothecin”. The “% Lactone at Equilibrium” value in [8] was 11.1 +/− 0.1%; in [9] it was 23.7 +/− 0.0%. The half-life in data set [8] worked out at 34.6 min; in [10] (blood), 54.6 min.

Take `CCC1(O)C(=O)OCc2c1cc1n(c2=O)Cc2c-1nc1cc(F)ccc1c2[Si](C)(C)C` (stereo in doubt) [Example 7, (20S)-11-fluoro-7-trimethylsilylcamptothecin]: the IC50 came to 0.75 nM in [4], 0.92 nM in [5] and 2 nM in data set [6]. The “similar antitumor effect (tumor volume reduction) to camptothecin at x-fold lower doses” value in [11] is given as 4 fold.

As to `CC[C@@]1(O)C(=O)OCc2c1cc1n(c2=O)Cc2cc3ccccc3nc2-1` [CPT, (20S)-Camptothecin, reference compound], the IC50 was 5 nM in data set [4], 10 nM in data set [5], 6 to 9 nM in data set [6] and 8 nM in data set [12]. Also, the “% Lactone at Equilibrium” value in data set [8] was 17 +/− 2.0%; in data set [3] (listed as Camptothecin), 5.3 +/− 0.6%; in data set [3] (listed as camptothecin), 5.3%; in data set [15] (setting [20]) it was less than 0.5%. The “affinity of HSA for the carboxylate form, fold higher than for the lactone form” value in data set [13] was 200 fold. In [10] (whole blood), this compound showed a half-life of 21.6 min. In addition, the “t1/2 of lactone in whole blood” value in data set [14] is given as 22 min. Moreover, the “% lactone at equilibrium in human plasma” value in data set [2] (setting [19]) is 0.2%. In addition, in [2] (setting [19]), the “t1/2 of lactone opening in human plasma” value was 11 min. In addition, the “lactone level at equilibrium in whole blood, fold greater than 9-aminocamptothecin” value in data set [3] (relative to 9-aminocamptothecin) is on record as “approximately 10 fold”. For the same compound, the t1/2 in [15] (setting [20]) came out at 11.9 ± 0.3 min. In data set [16], the “KDMPC overall association constant” value worked out at 100 M⁻¹. For the same compound, the “KDMPG overall association constant” value in data set [17] was 100 M⁻¹.

Consider `CC[C@@]1(O)C(=O)OCc2c1cc1n(c2=O)Cc2c-1nc1ccc(N)cc1c2CC[Si](C)(C)C` [DB-173], for which, in data set [8], the “% Lactone at Equilibrium” value is 11.9 +/− 0.3%. Also, the half-life was 45.3 min in [8]; 69 min in data set [10] (whole blood); 49 min in [15] (human, PBS containing 30 mg/ml HSA, pH 7.4). Further, the IC50 in data set [12] amounted to 4 nM. For the same compound, the “effect of 1 mg/ml HSA on the cytotoxic activity” value in data set [12] (MDA-MB-435 cells) is on record as “no effect”. The “self-association / aggregation state in solution” value in data set [18] is given as “much more likely to be found in solution as monomeric drug relative to DB172”. In addition, the “KDMPC overall association constant” value in [16] came out at 5800 M⁻¹. The “K value for DMPC, fold greater than camptothecin” value in data set [16] (relative to camptothecin) is on record as roughly 58 fold. In addition, the “KDMPG overall association constant” value in data set [17] worked out at 5800 M⁻¹.
